In paper PMC9223397 (International Journal of Molecular Sciences, 2022):
pIC50: −log10 of the molar value. Where two headings read alike, the source gives them in different places.

Columns and labels:
[1] = Plasma levels, spinal nerve injury (rhizotomy) model; type: in vivo, female mouse; details: ip
Description: (§1) The compounds were dissolved in 0.5% hydroxypropyl-methylcellulose (HPMC; H7509, Sigma-Aldrich) in distilled water and were administered by intraperitoneal (i.p.) route twice daily (bid) in a volume of 10 mL/kg. Administrations were given from 30 min after rhizotomy surgery until 42 days post-injury (dpi), the end of the study; in the SOD1^G93A study, treatments were given from 8 to 16 weeks of age (see Figure 6).
Plasma levels were determined in the two in vivo models evaluated to be able to associate the pharmacological activity with the levels present in plasma. […] In the SOD1^G93A model, the plasma levels were evaluated at 16 weeks of age (after 8 weeks of administration) and 15 min after compound administration (5 mg/kg i.p.). Plasma samples were assayed by ultraperformance liquid chromatography−triple quadrupole mass spectrometry (UPLC-MS/MS) after plasma protein precipitation. Results are expressed as mean ± standard deviation (n = 8).

[2] = test system: microglia and astrocytes in ventral horn after rhizotomy; assay: Glial reactivity after L4-L5 rhizotomy (Iba1, GFAP immunolabeling); type: in vivo, female mice (B6SJL); details: 5 mg/kg bid i.p., 42 dpi; for GFAP integrated density ± SEM (astroglial reactivity): untreated 19 × 10^4; for Iba1 integrated density ± SEM (microglial reactivity): untreated 26 × 10^4
Description: Surgeries were performed on three-month-old mice under anesthesia with ketamine-xylazine (100–10 mg/kg i.p.) as previously described. Briefly, the L4-L5 spinal roots were exposed by a small laminectomy on the right side. Afterwards, roots were cut at the exit from the intervertebral foramina, and the root stumps were separated. Mice were cared for until recovery in a warm environment. Analgesia was provided with buprenorphine (0.1 mg/kg) for the next 48 h post-surgery.
as §1
For glial cells immunofluorescence, other lumbar spinal cord sections were blocked with 10% normal donkey serum and incubated overnight with primary antibodies rabbit anti-Iba1 (1:500; 019–19741, Wako) and rat anti-GFAP (1:500; 13-0300, Invitrogen) to label microglia and astroglia, respectively. After several washes, sections were incubated with secondary antibodies Alexa Fluor 488-donkey anti-rat (1:500; A-21208, Invitrogen) or Alexa Fluor 594 donkey anti-rabbit (1:500; A21207, Invitrogen). Finally, sides were mounted with Fluoromount-G. To quantify glial cell reactivity, images of the ventral horn were acquired with an epifluorescence microscope (Nikon Eclipse Ni, Japan) using the same conditions for each analyzed marker. After defining a threshold for background correction, the integrated density of GFAP or Iba1 labeling was measured using ImageJ software.

SOD1^G93A mice = assay: Motor nerve conduction tests in SOD1G93A mice; type: in vivo, SOD1^G93A male mice
Description: as §1
Motor nerve conduction tests were performed before the surgery to obtain baseline values and at the end of the follow-up in the rhizotomy model, whereas the SOD1^G93A mice were evaluated at 8 weeks (prior to starting drug administration) and then every 2–3 weeks until the end point at 16 weeks of age (Figure 6). The sciatic nerve was stimulated by means of single pulses of 50 µs duration delivered from a Grass S88 stimulator through needle electrodes placed at the sciatic notch. The CMAP was recorded from TA, GM, and plantar interossei muscles with microneedle electrodes, with the active electrode being placed in the muscle and the reference at the fourth toe. […] The mice were anesthetized with pentobarbital (50 mg/kg i.p.), and their body temperature was maintained by means of a thermostatic warming pad.

[3] = target: T1, human Sigma-2 receptor (Sig-2R) (Homo sapiens, UniProt Q5BJF2); assay: Human Sig-2R radioligand assay; type: binding; details: [3H]-DTG, transfected HEK-293 Sig-1R knockout membranes
T1 construct: expressed in transfected cells; host or cells: HEK-293 Sig-1R knockout (membranes)
Description: The binding properties of the compounds to the human Sig-2R were similarly studied in transfected HEK-293 Sig-1R knockout membranes using [^3H]-1,3-di-o-tolylguanidine (DTG) (NET-986, PerkinElmer; Boston, USA) as the radioligand. The assay was carried out with 15 μg of membrane suspension, [^3H]-1,3-di-o-tolylguanidine (DTG) (10 nM, 100 μL), in either the absence or presence of either buffer or 10 μM haloperidol for total (TB) and nonspecific (NSB) binding, respectively, or the corresponding compound concentration. Binding buffer contained Tris-HCl (50 mM, pH 7.4). Plates were incubated at 25 °C for 120 min. After incubation, the reaction mix was transferred to MultiScreen HTS, FC plates (Merck Millipore) presoaked in 0.5% polyethyleneimine, and filtered. Following that, plates were washed with ice-cold Tris-HCl (10 mM, pH 8). Filters were dried and counted, and data were processed as above.

[4] = Tolerability of chronic administration in rhizotomy mice; type: in vivo; details: twice daily i.p. for 6 weeks, 0.5 and 5 mg/kg
Description: as §1

[5] = test system: NMJs of hindlimb muscle in SOD1^G93A mice; assay: Neuromuscular junction innervation in SOD1G93A mice; type: in vivo, SOD1^G93A male mice; details: 5 mg/kg i.p.; 16 weeks of age
Description: as §1
For neuromuscular junction (NMJ) labeling, 50 µm thick longitudinal sections of TA muscle were serially cut. Sections were blocked with 5% normal donkey serum and incubated with primary antibodies rabbit anti-synaptophysin (1:500; Ab32127, Abcam, Cambridge, UK) and chicken anti-neurofilament 200 (NF200, 1:1000; AB5539, Millipore, Burlington, MS, USA) 48 h at 4 °C. After washes, sections were incubated overnight with secondary antibody Alexa Fluor 594-donkey anti-rabbit and anti-chicken (1:200; A11042-A21207, Invitrogen, USA) and Alexa 488 conjugated α-bungarotoxin (1:500; B13422, Life Technologies, Carlsbad, CA USA). Confocal images were captured (LSM 700 Axio Observer, Carl Zeiss, Jena, Germany, 40xOil/z0.5), and the maximum projection images generated from 1.3 µm z projections. The proportion of innervated NMJs was calculated by classifying each endplate as occupied (when presynaptic terminals overlie the endplate) or vacant (no presynaptic label in contact with the endplate). At least 60 endplates were analyzed per muscle.

[6] = test system: spinal α-MNs in SOD1^G93A mice; assay: Spinal MN counts in SOD1G93A mice; type: in vivo, SOD1^G93A male mice; details: 5 mg/kg i.p.; 16 weeks of age; untreated 6.9 ± 0.5, WT 25.3 ± 0.5
Description: as §1
At the end of follow-up (42 dpi for rhizotomy and 16 weeks of age for ALS mice; Figure 6), the animals were deeply anesthetized and transcardially perfused with 4% PFA in PBS. The lumbar spinal cord and the TA muscle were harvested and cryopreserved in 30% sucrose solution in PB. The spinal cords were serially cut in 20 µm thick transverse sections with a cryostat (Leica, Mannheim, Germany). For MN counting, L4-L5 spinal cord sections separated 100 µm were stained for 3 h with an acidified solution of 3.1 mM cresyl violet. MNs were identified by their localization in the lateral ventral horn of the spinal cord and were counted following strict size and morphological criteria: only MNs with a diameter larger than 20 µm, polygonal shape, and prominent nucleoli were counted.

[7] = 5 mg/kg i.p. from 8 weeks of age, early (11 weeks) and mid (13 weeks) stages

T1 sequence (Q5BJF2 whole entry): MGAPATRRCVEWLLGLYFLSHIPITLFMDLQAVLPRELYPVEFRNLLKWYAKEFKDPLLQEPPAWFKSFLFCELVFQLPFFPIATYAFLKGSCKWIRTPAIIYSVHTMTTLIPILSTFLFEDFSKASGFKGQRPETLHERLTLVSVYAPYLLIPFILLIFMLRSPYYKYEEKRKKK

Row | SMILES | concentration at 15 min ([1]; plasma, rhizotomy female mouse, 0.5 mg/kg i.p. bid, day 42, read-out: Plasma Concentration 15 min Post-Administration, Mean) | concentration at 15 min ([1]; plasma, rhizotomy female mouse, 5 mg/kg i.p. bid, day 42, read-out: Plasma Concentration 15 min Post-Administration, Mean) | GFAP integrated density ± SEM (astroglial reactivity) [2] | Iba1 integrated density ± SEM (microglial reactivity) [2] | CMAP amplitude of TA and plantar muscles vs vehicle (SOD1^G93A mice; [7]) | CMAP amplitude of TA and plantar muscles vs vehicle (SOD1^G93A mice; 5 mg/kg i.p., at 16 weeks of age) | pIC50 [3] | Toxicity of chronic administration (behavior, body weight) [4] | Proportion of innervated endplates (NMJ) vs vehicle [5] | Number of surviving spinal α-MNs [6] | concentration at 15 min ([1]; female, mouse, in vivo, 0.5 mg/kg) | concentration at 15 min ([1]; female, mouse, in vivo, 5 mg/kg)
1 | C[C@@H]1OC2(CCN(Cc3ccc(F)cc3)CC2)CN(C)C1=O [EST79232] | 20 ng/mL | 265 ng/mL | 4 × 10^4 ± 0.4 × 10^4 | 13 × 10^4 ± 2 × 10^4 | significantly prevented the decline in amplitude of the CMAP of TA and plantar muscles | effect was reduced to levels found in the vehicle group | < 5.00 | did not cause overt toxicity in the animals | tendency to preserve NMJ innervation, although differences did not reach statistical significance | 10.8 ± 1.1 MNs per section | – | –
2 | CCN1CC2(CCN(Cc3ccc(C#N)c(F)c3)CC2)O[C@@H](C)C1=O [EST79376] | – | – | 15 × 10^4 ± 2.7 × 10^4 | 25 × 10^4 ± 4 × 10^4 | only showed significant preservation of the CMAP amplitude in the plantar muscle at 13 weeks of age | – | < 5.00 | did not cause overt toxicity in the animals | tendency to preserve NMJ innervation, although differences did not reach statistical significance | 8.5 ± 1.0 MNs per section | 21 ng/mL | 592 ng/mL
